Data taken from PubChem BioAssay (NCI).
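Protocol summary: plate cells (96-well), add compound at 5 concentrations, incubate 48 h, interpolate endpoints linearly. GI50 is the concentration that inhibits growth by half. TGI is the concentration that stops growth completely.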

Key:
Test in all cases: NCI anticancer screen, dose series, 48 h
SR leukemia = test system: SR leukemia
UACC-62 melanoma = test system: UACC-62 melanoma
MCF7 breast = test system: MCF7 breast
U251 CNS = test system: U251 CNS
SF-295 CNS = test system: SF-295 CNS
HOP-92 NSCLC = test system: HOP-92 NSCLC
IGROV1 ovarian = test system: IGROV1 ovarian
OVCAR-4 ovarian = test system: OVCAR-4 ovarian
HOP-62 NSCLC = test system: HOP-62 NSCLC
KM12 colon = test system: KM12 colon
786-0 renal = test system: 786-0 renal
DU-145 prostate = test system: DU-145 prostate
HL-60(TB) leukemia = test system: HL-60(TB) leukemia
MDA-MB-231 breast = test system: MDA-MB-231 breast
A498 renal = test system: A498 renal
SK-MEL-5 melanoma = test system: SK-MEL-5 melanoma
NCI-H460 lung = test system: NCI-H460 lung
MOLT-4 leukemia = test system: MOLT-4 leukemia
UACC-257 melanoma = test system: UACC-257 melanoma
UO-31 renal = test system: UO-31 renal
CCRF-CEM leukemia = test system: CCRF-CEM leukemia
EKVX NSCLC = test system: EKVX NSCLC
M14 melanoma = test system: M14 melanoma
NCI-H226 lung = test system: NCI-H226 lung
LOX IMVI melanoma = test system: LOX IMVI melanoma
COLO 205 colon = test system: COLO 205 colon
K-562 leukemia = test system: K-562 leukemia
CAKI-1 renal = test system: CAKI-1 renal
A549 NSCLC = test system: A549 NSCLC
PC-3 prostate = test system: PC-3 prostate
SNB-75 CNS = test system: SNB-75 CNS
OVCAR-5 ovarian = test system: OVCAR-5 ovarian
SK-MEL-2 melanoma = test system: SK-MEL-2 melanoma
HCT-15 colon = test system: HCT-15 colon
RXF 393 renal = test system: RXF 393 renal
SK-OV-3 ovarian = test system: SK-OV-3 ovarian
SK-MEL-28 melanoma = test system: SK-MEL-28 melanoma
SF-539 CNS = test system: SF-539 CNS
MDA-MB-435 = test system: MDA-MB-435
SNB-19 CNS = test system: SNB-19 CNS
BT-549 breast = test system: BT-549 breast
ACHN renal = test system: ACHN renal
OVCAR-8 ovarian = test system: OVCAR-8 ovarian
RPMI-8226 leukemia = test system: RPMI-8226 leukemia
SW-620 colon = test system: SW-620 colon
T-47D breast = test system: T-47D breast
NCI/ADR-RES ovarian = test system: NCI/ADR-RES ovarian
NCI-H23 lung = test system: NCI-H23 lung
TK-10 renal = test system: TK-10 renal
HCC-2998 colon = test system: HCC-2998 colon
SN12C renal = test system: SN12C renal
HS 578T breast = test system: HS 578T breast
HT29 colon = test system: HT29 colon
HCT-116 colon = test system: HCT-116 colon

Compound: Cn1c(/C(C#N)=C/c2ccc3ccccc3c2)cc2ccccc21
- GI50 (SR leukemia): 114 nM
- TGI (SR leukemia): > 100 µM
- GI50 (UACC-62 melanoma): 42.5 nM
- TGI (UACC-62 melanoma): > 100 µM
- GI50 (MCF7 breast): 94.6 nM
- TGI (MCF7 breast): > 100 µM
- GI50 (U251 CNS): 249 nM
- TGI (U251 CNS): > 100 µM
- GI50 (SF-295 CNS): 110 nM
- TGI (SF-295 CNS): 463 nM
- GI50 (HOP-92 NSCLC): 39.5 nM
- TGI (HOP-92 NSCLC): > 100 µM
- GI50 (IGROV1 ovarian): 225 nM
- TGI (IGROV1 ovarian): > 100 µM
- GI50 (OVCAR-4 ovarian): > 100 µM
- TGI (OVCAR-4 ovarian): > 100 µM
- GI50 (HOP-62 NSCLC): 357 nM
- TGI (HOP-62 NSCLC): > 100 µM
- GI50 (KM12 colon): 114 nM
- TGI (KM12 colon): > 100 µM
- GI50 (786-0 renal): 424 nM
- TGI (786-0 renal): > 100 µM
- GI50 (DU-145 prostate): 456 nM
- TGI (DU-145 prostate): > 100 µM
- GI50 (HL-60(TB) leukemia): 210 nM
- TGI (HL-60(TB) leukemia): 699 nM
- GI50 (MDA-MB-231 breast): 460 nM
- TGI (MDA-MB-231 breast): > 100 µM
- GI50 (A498 renal): 40.9 nM
- TGI (A498 renal): 552 nM
- GI50 (SK-MEL-5 melanoma): 455 nM
- TGI (SK-MEL-5 melanoma): > 100 µM
- GI50 (NCI-H460 lung): 201 nM
- TGI (NCI-H460 lung): > 100 µM
- GI50 (MOLT-4 leukemia): 468 nM
- TGI (MOLT-4 leukemia): > 100 µM
- GI50 (UACC-257 melanoma): > 100 µM
- TGI (UACC-257 melanoma): > 100 µM
- GI50 (UO-31 renal): 157 nM
- TGI (UO-31 renal): > 100 µM
- GI50 (CCRF-CEM leukemia): 267 nM
- TGI (CCRF-CEM leukemia): > 100 µM
- GI50 (EKVX NSCLC): 471 nM
- TGI (EKVX NSCLC): > 100 µM
- GI50 (M14 melanoma): 104 nM
- TGI (M14 melanoma): > 100 µM
- GI50 (NCI-H226 lung): 662 nM
- TGI (NCI-H226 lung): > 100 µM
- GI50 (LOX IMVI melanoma): 120 nM
- TGI (LOX IMVI melanoma): > 100 µM
- GI50 (COLO 205 colon): 309 nM
- TGI (COLO 205 colon): > 26.1 µM
- GI50 (K-562 leukemia): 45.5 nM
- TGI (K-562 leukemia): > 100 µM
- GI50 (CAKI-1 renal): 60.5 nM
- TGI (CAKI-1 renal): > 100 µM
- GI50 (A549 NSCLC): 247 nM
- TGI (A549 NSCLC): > 100 µM
- GI50 (PC-3 prostate): 220 nM
- TGI (PC-3 prostate): > 100 µM
- GI50 (SNB-75 CNS): 62.8 nM
- TGI (SNB-75 CNS): > 92.7 µM
- GI50 (OVCAR-5 ovarian): 411 nM
- TGI (OVCAR-5 ovarian): > 100 µM
- GI50 (SK-MEL-2 melanoma): 6.28 µM
- TGI (SK-MEL-2 melanoma): > 100 µM
- GI50 (HCT-15 colon): 93.4 nM
- TGI (HCT-15 colon): > 100 µM
- GI50 (RXF 393 renal): 50.7 nM
- TGI (RXF 393 renal): 474 nM
- GI50 (SK-OV-3 ovarian): > 100 µM
- TGI (SK-OV-3 ovarian): > 100 µM
- GI50 (SK-MEL-28 melanoma): 16.6 µM
- TGI (SK-MEL-28 melanoma): > 100 µM
- GI50 (SF-539 CNS): 101 nM
- TGI (SF-539 CNS): 941 nM
- GI50 (MDA-MB-435): 31.7 nM
- TGI (MDA-MB-435): 109 nM
- GI50 (SNB-19 CNS): 256 nM
- TGI (SNB-19 CNS): > 100 µM
- GI50 (BT-549 breast): 474 nM
- TGI (BT-549 breast): > 100 µM
- GI50 (ACHN renal): 125 nM
- TGI (ACHN renal): > 100 µM
- GI50 (OVCAR-8 ovarian): 421 nM
- TGI (OVCAR-8 ovarian): > 100 µM
- GI50 (RPMI-8226 leukemia): 311 nM
- TGI (RPMI-8226 leukemia): > 100 µM
- GI50 (SW-620 colon): 93.5 nM
- TGI (SW-620 colon): > 100 µM
- TGI (T-47D breast): > 100 µM
- GI50 (NCI/ADR-RES ovarian): 64.8 nM
- TGI (NCI/ADR-RES ovarian): > 100 µM
- GI50 (NCI-H23 lung): 392 nM
- TGI (NCI-H23 lung): > 100 µM
- GI50 (TK-10 renal): > 100 µM
- TGI (TK-10 renal): > 100 µM
- GI50 (HCC-2998 colon): 324 nM
- TGI (HCC-2998 colon): > 100 µM
- GI50 (SN12C renal): 389 nM
- TGI (SN12C renal): > 100 µM
- GI50 (HS 578T breast): 162 nM
- TGI (HS 578T breast): > 100 µM
- GI50 (HT29 colon): 353 nM
- TGI (HT29 colon): > 100 µM
- GI50 (HCT-116 colon): 77.4 nM
- TGI (HCT-116 colon): > 100 µM
